Measured values as given in patent publication US20260125360A1, “HERBICIDAL IMIDAZOLE COMPOUNDS” (SYNGENTA CROP PROTECTION AG, priority 2022, published 2026).

Key:
Format in all cases: in vivo
Details in all cases: 250 g/ha, evaluated after 13 days
[1] = test system: Ipomoea hederacea (IPOHE); test: Post-emergence herbicide glasshouse test
Method in brief: (§1)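 Spray: acetone/water 50:50 + 0.5% Tween 20, 250 g/ha unless stated; 1 d (pre) or 8 d (post) after sowing. Glasshouse 24/16° C, 14 h light, 65% RH, watered twice daily. Read-out at 13 d: % damage binned 1–5 (5=81-100%, 1=0-20%).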

[2] = test system: Amaranthus retoflexus (AMARE); test: Post-emergence herbicide glasshouse test
Method in brief: as §1

[3] = test system: Amaranthus palmeri (AMAPA); test: Post-emergence herbicide glasshouse test
Method in brief: as §1

[4] = test system: Echinochloa crus-galli (ECHCG); test: Post-emergence herbicide glasshouse test
Method in brief: as §1

[5] = test system: Ipomoea hederacea (IPOHE); test: Pre-emergence herbicide glasshouse test
Method in brief: as §1

[6] = test system: Amaranthus retoflexus (AMARE); test: Pre-emergence herbicide glasshouse test
Method in brief: as §1

[7] = test system: Amaranthus palmeri (AMAPA); test: Pre-emergence herbicide glasshouse test
Method in brief: as §1

[8] = test system: Echinochloa crus-galli (ECHCG); test: Pre-emergence herbicide glasshouse test
Method in brief: as §1

## CCON=Cc1cn(Cc2cc(C)on2)c(-c2cnc(Cl)c(F)c2)n1 [Compound 1.179]
[1]
  percentage damage caused to the plant, IPOHE (five-point scale): 1 (1=0-20%)
[2]
  percentage damage caused to the plant, AMARE (five-point scale): 3 (3=41-60%)
[3]
  percentage damage caused to the plant, AMAPA (five-point scale): 3 (3=41-60%)
[4]
  percentage damage caused to the plant, ECHCG (five-point scale): 1 (1=0-20%)
[5]
  percentage damage caused to the plant, IPOHE (five-point scale): 1 (1=0-20%)
[6]
  percentage damage caused to the plant, AMARE (five-point scale): 4 (4=61-80%)
[7]
  percentage damage caused to the plant, AMAPA (five-point scale): 5 (5=81-100%)
[8]
  percentage damage caused to the plant, ECHCG (five-point scale): 1 (1=0-20%)

## CON=Cc1cn(Cc2ncn(C)n2)c(-c2cnc(Cl)c(F)c2)n1 [Compound 1.180]
[1]
  percentage damage caused to the plant, IPOHE (five-point scale): 4 (4=61-80%)
[2]
  percentage damage caused to the plant, AMARE (five-point scale): 1 (1=0-20%)
[3]
  percentage damage caused to the plant, AMAPA (five-point scale): 2 (2=21-40%)
[4]
  percentage damage caused to the plant, ECHCG (five-point scale): 1 (1=0-20%)
[5]
  percentage damage caused to the plant, IPOHE (five-point scale): 5 (5=81-100%)
[6]
  percentage damage caused to the plant, AMARE (five-point scale): 5 (5=81-100%)
[7]
  percentage damage caused to the plant, AMAPA (five-point scale): 4 (4=61-80%)
[8]
  percentage damage caused to the plant, ECHCG (five-point scale): 1 (1=0-20%)

## Cc1nnc(Cn2cc(C(F)(F)F)nc2-c2cnc(Cl)c(F)c2)o1 [Compound 1.181]
[1]
  percentage damage caused to the plant, IPOHE (five-point scale): 1 (1=0-20%)
[2]
  percentage damage caused to the plant, AMARE (five-point scale): 4 (4=61-80%)
[3]
  percentage damage caused to the plant, AMAPA (five-point scale): 4 (4=61-80%)
[4]
  percentage damage caused to the plant, ECHCG (five-point scale): 1 (1=0-20%)
[5]
  percentage damage caused to the plant, IPOHE (five-point scale): 4 (4=61-80%)
[6]
  percentage damage caused to the plant, AMARE (five-point scale): 5 (5=81-100%)
[7]
  percentage damage caused to the plant, AMAPA (five-point scale): 5 (5=81-100%)
[8]
  percentage damage caused to the plant, ECHCG (five-point scale): 3 (3=41-60%)

## Cn1cnc(Cn2cc(C#N)nc2-c2cnc(Cl)c(F)c2)n1 [Compound 1.182]
[1]
  percentage damage caused to the plant, IPOHE (five-point scale): 3 (3=41-60%)
[2]
  percentage damage caused to the plant, AMARE (five-point scale): 5 (5=81-100%)
[3]
  percentage damage caused to the plant, AMAPA (five-point scale): 4 (4=61-80%)
[4]
  percentage damage caused to the plant, ECHCG (five-point scale): 3 (3=41-60%)
[5]
  percentage damage caused to the plant, IPOHE (five-point scale): 5 (5=81-100%)
[6]
  percentage damage caused to the plant, AMARE (five-point scale): 5 (5=81-100%)
[7]
  percentage damage caused to the plant, AMAPA (five-point scale): 5 (5=81-100%)
[8]
  percentage damage caused to the plant, ECHCG (five-point scale): 4 (4=61-80%)

## Cc1nnc(Cn2cc(C(F)(F)F)nc2-c2ccc(F)c(F)c2)o1 [Compound 1.183]
[1]
  percentage damage caused to the plant, IPOHE (five-point scale): 4 (4=61-80%)
[2]
  percentage damage caused to the plant, AMARE (five-point scale): 5 (5=81-100%)
[3]
  percentage damage caused to the plant, AMAPA (five-point scale): 5 (5=81-100%)
[4]
  percentage damage caused to the plant, ECHCG (five-point scale): 2 (2=21-40%)
[5]
  percentage damage caused to the plant, IPOHE (five-point scale): 5 (5=81-100%)
[6]
  percentage damage caused to the plant, AMARE (five-point scale): 5 (5=81-100%)
[7]
  percentage damage caused to the plant, AMAPA (five-point scale): 5 (5=81-100%)
[8]
  percentage damage caused to the plant, ECHCG (five-point scale): 3 (3=41-60%)

## Cn1cnc(Cn2cc(C#N)nc2-c2ccc(F)c(F)c2)n1 [Compound 1.184]
[1]
  percentage damage caused to the plant, IPOHE (five-point scale): 5 (5=81-100%)
[2]
  percentage damage caused to the plant, AMARE (five-point scale): 5 (5=81-100%)
[3]
  percentage damage caused to the plant, AMAPA (five-point scale): 5 (5=81-100%)
[4]
  percentage damage caused to the plant, ECHCG (five-point scale): 4 (4=61-80%)
[5]
  percentage damage caused to the plant, IPOHE (five-point scale): 5 (5=81-100%)
[6]
  percentage damage caused to the plant, AMARE (five-point scale): 5 (5=81-100%)
[7]
  percentage damage caused to the plant, AMAPA (five-point scale): 5 (5=81-100%)
[8]
  percentage damage caused to the plant, ECHCG (five-point scale): 5 (5=81-100%)

## Cc1cc(Cn2cc(C#N)nc2-c2cnc(Cl)c(F)c2)no1 [Compound 1.185]
[1]
  percentage damage caused to the plant, IPOHE (five-point scale): 3 (3=41-60%)
[2]
  percentage damage caused to the plant, AMARE (five-point scale): 4 (4=61-80%)
[3]
  percentage damage caused to the plant, AMAPA (five-point scale): 4 (4=61-80%)
[4]
  percentage damage caused to the plant, ECHCG (five-point scale): 1 (1=0-20%)
[5]
  percentage damage caused to the plant, IPOHE (five-point scale): 4 (4=61-80%)
[6]
  percentage damage caused to the plant, AMARE (five-point scale): 5 (5=81-100%)
[7]
  percentage damage caused to the plant, AMAPA (five-point scale): 5 (5=81-100%)
[8]
  percentage damage caused to the plant, ECHCG (five-point scale): 3 (3=41-60%)

## Cc1cc(Cn2cc(C(F)(F)F)nc2-c2ccc(F)c(F)c2)no1 [Compound 1.192]
[1]
  percentage damage caused to the plant, IPOHE (five-point scale): 5 (5=81-100%)
[2]
  percentage damage caused to the plant, AMARE (five-point scale): 5 (5=81-100%)
[3]
  percentage damage caused to the plant, AMAPA (five-point scale): 5 (5=81-100%)
[4]
  percentage damage caused to the plant, ECHCG (five-point scale): 5 (5=81-100%)
[5]
  percentage damage caused to the plant, IPOHE (five-point scale): 5 (5=81-100%)
[6]
  percentage damage caused to the plant, AMARE (five-point scale): 5 (5=81-100%)
[7]
  percentage damage caused to the plant, AMAPA (five-point scale): 5 (5=81-100%)
[8]
  percentage damage caused to the plant, ECHCG (five-point scale): 5 (5=81-100%)
